Measured values taken from patent publication US9278086B2, “Combination therapy and uses thereof for treatment and prevention of parasitic infection and disease” (The Royal Institution for the Advancement of …, priority 2010, dated 2016).

Key:
in vivo = assay: in vivo; design: species or system mice; details: mouse
Description: Cysteamine was detected in plasma by high performance liquid chromatography analysis with ultraviolet detection (Dias V C, et al. (1998) Clin Chem 44: 2199-2201). Briefly, blood was collected in EDTA/heparin-containing tubes, and plasma was obtained by centrifugation. Plasma thiols were reduced by treatment with Tris(2-carboxyethyl)phosphine (0.05M final concentration, 20 min. at 20° C.), and proteins were precipitated with tri-chloroacetic acid (TCA, 10% final concentration). Free thiols from the protein-free supernatant were derivatized using SBD-F ([…]), used at a final concentration of 0.2 mg/ml (1 hr at 60° C.) in 0.05 M borate buffer (pH 9.5). The mixture was then analyzed by HPLC: the mobile phase consisted of an aqueous solvent (0.1M acetic acid, 0.1 sodium acetate, pH 4.3) running on a Supelco™ LC-8 column, and elution of plasma analytes was with a 0-10% acetonitrile gradient. Detection of SBD-F derivatized analytes was by reading fluorescence at 515 nm (excitation at 385 nm). Cysteamine elution peaks were quantified (surface area), and plasma concentrations were calculated using a set of internal cysteamine standards processed at the same time. Area under the curve (AUCt0-tlast) was calculated using the trapezoid approximation method.
To gain more insight into the anti-malarial effect of cysteamine (Cys) in vivo, the pharmacokinetic characteristics (plasma level) of Cys administered through the sub-cutaneous (s.c.) and intra-peritoneal (i.p) routes was compared. […] To determine which pharmacokinetic parameter (AUC vs. Cmax) is important for efficacy against Plasmodium, the i.p. and s.c. routes of injection were compared in a continuous treatment regimen, starting one day prior to infection (10^5 pRBC of P. chabaudi, i.v.) and continuing daily for 7 days. Parasitemia was monitored on thin blood smears at days 5, 6 and 7 following infection (FIG. 1B). Treatment of infected animals with 120 mg/kg of Cys administered either s.c. or i.p. caused a highly significant (p<0.01) 50% reduction in parasitemia at day 5 and 6, relative to saline injected controls.
It was next determined whether Cys at equivalent dosing to that used in the clinical treatment of nephropathic cystinosis in humans has an effect on the course and severity of P. chabaudi infection in mice. In cystinosis patients, Cys is given orally as Cys bitartrate (Cystagon®). […] The efficacy of different regimens of 50 mg/kg Cys s.c. (number of injections, interval between injections) on replication of P. chabaudi in vivo was evaluated. P. chabaudi-infected mice were treated daily, starting at day −1 and continuing to day 10, with either 1×150 mg/kg, 3×50 mg/kg given at 2 hr intervals, 4×50 mg/kg given at 2 hr intervals or 3×50 mg/kg given at 1 hr intervals of Cys, and blood parasitemia was monitored at days 5, 6 and 7 (FIG. 2B).

Plasmodium chabaudi = assay: P. chabaudi infection (10^5 pRBC i.v.) in A/J mice, continuous daily cysteamine treatment, blood parasitemia; format: in vivo
Description: A/J and C57BL/6 (B6) mice were purchased from the Jackson Laboratories (Bar Harbor, Me.) and were housed at McGill University according to the guidelines of the Canadian Council on Animal Care. An LDH virus-free isolate of P. chabaudi AS was maintained by weekly passage in A/J mice. […] Following infection, the percentage of pRBC was determined daily on thin blood smears stained with Dif-Quik™ (Dade Behring, Newark, Del.), as described (Fortin A, et al. (2001) Proc Natl Acad Sci USA 98: 10793-10798).
Cysteamine hydrochloride (Sigma, Burlington ON) was prepared in PBS. […]
To gain more insight into the anti-malarial effect of cysteamine (Cys) in vivo, the pharmacokinetic characteristics (plasma level) of Cys administered through the sub-cutaneous (s.c.) and intra-peritoneal (i.p) routes was compared. […] Parasitemia was monitored on thin blood smears at days 5, 6 and 7 following infection (FIG. 1B). […]
It was next determined whether Cys at equivalent dosing to that used in the clinical treatment of nephropathic cystinosis in humans has an effect on the course and severity of P. chabaudi infection in mice. […] The efficacy of different regimens of 50 mg/kg Cys s.c. (number of injections, interval between injections) on replication of P. chabaudi in vivo was evaluated. […]

Plasmodium berghei ANKA = Plasmodium berghei ANKA infection (cerebral malaria model) in C57BL/6J mice, parasitemia and survival; format: in vivo; details: Cysteamine alone
Description: FIGS. 8A and 8B show the results of two independent experiments on the effect of cysteamine and artesunate combinations on the progression of Plasmodium berghei ANKA infection (parasitemia). Groups of 5 adult 18-20 g C57BL/6J males and females were infected intravenously with 1×10^6 erythrocytes parasitized with P. berghei ANKA at time “0”. Two hours later, mice were injected i.p with either Artemisinin alone or with Artemisinin/Cysteamine combinations (at the indicated concentrations in mg/kg body weight). In the case of the latter, Artemisinin was injected first in one quadrant, and cysteamine was injected second, 10-15 minutes later in another quadrant. The drug treatment was further repeated at days 1, 2 and 3 post-infection to emulate the standard 4-day test used in anti-malarial drug discovery. Starting at day 5, blood was collected, thin blood smears were prepared, and parasitemia was determined (400 erythrocytes counted, expressed as percentage parasitized erythrocytes). Error bars show standard deviations on the mean; and
FIGS. 9A and 9B show the results of two independent experiments on the effect of cysteamine and artesunate combinations on the survival of Plasmodium berghei ANKA-infected mice. Infection and drug administration were performed as described above for FIGS. 8A and 8B. Animals were monitored for the appearance and severity of cerebral symptoms (CM phase, shown as rectangle in graph), and moribund animals were euthanized, and time of death was recorded.
Intravenous infection with Plasmodium berghei ANKA is an accepted mouse model of cerebral malaria (CM) (Hunt, N. H. et al. 2006, Int. J. Parasitol. 36: 569-582). The infection causes the following pathology. First, there is appearance of blood parasitemia, starting at days 3 or 4, which can go up to 10% by day 7-8. Starting at day 5-6, there is emergence of cerebral symptoms caused by permeability of the blood brain barrier, concomitant to trapping of parasitized red cells in the microvasculature and acute pathological host inflammatory response in situ. This cerebral phase quickly progresses from tremors, to paralysis, to coma, and is uniformly lethal in mice by days 8-10. In this model, progress of infection and possibly drug effects may be monitored by a) appearance and intensity of blood parasitemia (between days 5-8), b) appearance of cerebral symptoms, and c) lethality.

In the case of NCCS [Cysteamine], the AUC (in vivo; ip, 120 mg/kg) is reported as 405 µM·h, the Cmax (in vivo; ip, 120 mg/kg) is reported as 665 µM and the Tmax (in vivo; ip, 120 mg/kg) is reported as < 5 min. It also gave an AUC (in vivo; sc, 50 mg/kg) of 47.4 µM·h, a Cmax (in vivo; sc, 50 mg/kg) of ~80 µM and an AUC (in vivo; sc, 120 mg/kg) of 255 µM·h. For the same molecule, the Cmax (in vivo; sc, 120 mg/kg) was 250 µM, the Tmax (in vivo; sc, 120 mg/kg) was 30 min and the “reduction in parasitemia relative to saline injected controls” value (Plasmodium chabaudi; 120 mg/kg Cys daily, either s.c. or i.p., day 5 and 6, p<0.01) was 50%. The “reduction of blood parasitemia” value (Plasmodium chabaudi; Cys s.c. daily, all regimens: 1×150 mg/kg, 3×50 or 4×50 mg/kg at 2 hr, 3×50 mg/kg at 1 hr intervals (strongest), days 5, 6, 7) was 40-67% and the “effect on survival of P. berghei-infected animals” value (Plasmodium berghei ANKA) was “minor positive effect on survival”.
